Experimental data as given in paper PMC4279406, “Simultaneous targeting of PI3Kδ and a PI3Kδ-dependent MEK1/2-Erk1/2 pathway for therapy in pediatric B-cell acute lymphoblastic leukemia” (Oncotarget, 2014).

Legend:
[1] = system: Raji cells; test: Signaling by Western blot; assay type: cell-based, human; conditions: Raji
Description: (§1) Raji and SU-DHL-6 cells were treated with X-370 for 1 h (left panel) or treated with 0.5 μM X-370 for indicated times (middle panel). Right panel, Raji cells were incubated in fresh medium following treatment with 0.5 μM X-370 for 1 h. Indicated proteins were detected. (B) Raji-R (the rituximab-resistant derivatives of Raji cells) cells were resistant to X-370. The activity of X-370 on the proliferation of Raji parent and Raji-R cells was determined by CCK-8 assay as described in the methods section. (C) X-370 blocked phosphorylation of Akt but not Erk1/2 in Raji-R cells. Raji-R cells were treated with X-370 for 1h and indicated proteins were detected. Data shown are representative from three independent experiments.
(§2) Figure 5 Inhibition of Erk1/2 phosphorylation by X-370 contributed to its antiproliferative activity (A-C) X-370 inhibited Erk1/2 phosphorylation via PI3K-PDK1-MEK1/2 cascade but not the PI3K-Gab1 positive feedback loop. (A) Raji and SU-DHL-6 cells were exposed to 1 μM X370 for 3 h and protein fraction from cellular membrane was separated using Native Membrane Protein Extraction Kit and probed. WCL: whole cell lysate. (B) Inhibition of PDK1 or MEK1/2 abrogated Erk1/2 phosphorylation. Cells were treated with pharmacological inhibitors of Raf (AZ 628, PLX4032), MEK1/2 (AZD6244), p90RSK (BI-D1870), PI3Kδ (X-370), PDK1 (BX-912), Akt (MK-2206), mTOR (AZD8055) or mTORC1 (Rapamycin) respectively and indicated proteins were detected. (C) X-370 disrupted the association between PDK1 and MEK1/2. Raji cells were treated with 1 μM X370 for 1 h and cell lysates were immunoprecipitated with anti-PDK1 antibody and indicated proteins were detected. WCL: whole cell lysate. (D-F) Inhibition of Erk1/2 phosphorylation was required for the anti-proliferative activity of X-370. (D) Raji cells ectopically expressing a constitutively activated phospho-mimic MEK1 mutant (MEK1 […] or MEK DD) were incubated with X-370 or AZD6244 for 1 h and then subjected to Western blot. (E) Raji and Raji MEK DD cells were treated with X-370 for 72 h and cell proliferation was detected by CCK-8 assay. (F) Raji MEK DD cells were treated with X-370 and AZD6244 and cell proliferation was detected by CCK-8 assay. Data were show as mean ± SD of three independent experiments. *: p < 0.05 determined by t-tests at each data point. […]
(§3) Cells were treated as indicated conditions and then subjected to lysate to perform standard Western blot as described previously1. Briefly, whole-cell lysates and SDS-loading buffer diluted cell fractions were analyzed on SDS-PAGE gels. Transfer to nitrocellulose membranes, nonfat milk blocking, probing with indicated primary antibodies and the corresponding HRP-conjugated second antibodies.
(§4) Chemiluminescence were performed and captured using ImageQuant LAS 4000 (GE healthcare Life Sciences, Piscataway, NJ, USA) and band intensity was measure both with ImageQuant™ TL (GE Healthcare Life Sciences) 2. […]
(§5) (also on this page, place not known: PI3Kδ -dependent MEK1/2 - B -cell previously 1. whole -cell SDS -loading SDS -PAGE HRP -conjugated (G E A B Val828 Trp760 Thr750 Met752 Tyr813 affinity pocket specificity pocket hinge Glu826 CAL-101 X-370) […]
(§6) (1 picture or pasted object on this page, not shown here)

[2] = system: SU-DHL-6 cells; test: Signaling by Western blot; assay type: cell-based, human
Description: as §1, §2, §3, §4, §5, §6

[3] = system: PI3Kγ (MCP-1-stimulated THP-1 monocytes); test: MCP-1-stimulated Akt phosphorylation in THP-1 cells; assay type: cell-based; conditions: MCP-1 100 ng/ml
Description: In fibroblasts, signals from the insulin-like growth factor 1 (IGF-1) receptor are mediated by PI3Kα, while lysophosphatidic acid (LPA) stimulates G-protein coupled receptor (GPCR) signals via PI3Kβ[26]. After being pre-incubated with X-370, murine embryonic fibroblasts cultured in serum-free medium were stimulated with IGF-1 or LPA. […] Either PI3Kδ or PI3Kγ can be activated in THP-1 monocytes dependent on the stimulating ligand, among which macrophage colony stimulating factor (M-CSF/CSF-1) activates RTK-coupled PI3Kδ, while monocyte chemoattractant protein-1 (MCP-1) activates PI3Kγ [24]. Accordingly, THP-1 cells cultured in serum-free medium were stimulated with MCP-1 or M-CSF in the presence of X-370 and phosphorylated Akt was measured.
Cell lysates were probed with indicated antibodies. The IC50 values were calculated based on relative band intensity measured with ImageQuant™ TL (GE Healthcare Life Sciences, Piscataway, NJ) (B). Data shown are mean values from three independent experiments. (C, D, E, F) X-370 blocked stimuli-triggered PI3Kδ activation. MEF cells and THP-1 were starved in serum-free medium for 12 h or 4 h respectively and X-370 were added for an additional 1 h treatment following stimulation of IGF-1 at 100 ng/ml for MEF cells (C), LPA at 10 μM for MEF cells (D), MCP-1 at 100ng/ml for THP-1 (E) and M-CSF at 50 ng/ml for THP-1 (F). […]

Which “phosphorylation of Erk1/2 at T202/Y204” value [1] does the source give for `O=C(N1CCCC1)N1CCC(n2cnc3c(-n4c(C(F)F)nc5ccccc54)nc(N4CCOCC4)nc32)CC1` [X-370] here?
The value was “decreased in lockstep with inactivation of Akt”.

What about the “phosphorylation of MEK1/2 at Ser217/221” value ([1]; 1 μM, 1 h) of the same molecule?
Its value is “inhibited”.

And the “phosphorylation of Akt at the membrane” value ([1]; 1 μM, 3 h, membrane fraction)?
Its value is “abolished”.

What about the “concentration as low as which Akt phosphorylation was significantly reduced” value ([1]; 1 h) of the same molecule?
Its value is 5 nM.

What about the “reversibility of action on PI3K and Erk1/2 after compound removal” value ([1]; 0.5 μM 1 h then drug-free medium, restoration after 15 minutes to 1 h) of the same molecule?
Its value is “rapidly reversible”.

And the “phosphorylation of Erk1/2 at T202/Y204” value ([2]; SU-DHL-6)?
The value was “decreased in lockstep with inactivation of Akt”.

And the “phosphorylation of Akt at the membrane” value ([2]; SU-DHL-6, 1 μM, 3 h, membrane fraction)?
Its value is “abolished”.

What about the “concentration as low as which Akt phosphorylation was significantly reduced” value ([2]; SU-DHL-6, 1 h) of the same molecule?
The value was 5 nM.

And the “reversibility of action on PI3K and Erk1/2 after compound removal” value ([2]; SU-DHL-6, 0.5 μM 1 h then drug-free medium, restoration after 15 minutes to 1 h)?
Its value is “rapidly reversible”.

What about the “MCP-1-stimulated Akt phosphorylation” value [3] of the same molecule?
Its value is “much less activity”.
